Source: PubChem BioAssay (NCI)
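Results reflect a 48-hour exposure of cells in 96-well plates to compound at five concentrations. GI50: concentration for 50% inhibition of growth. The concentration for full growth arrest is given as TGI.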

How the values were obtained:
Assay in all cases: NCI-60 cell line screen, 48 h
[1] = system: IGROV1 ovarian
[2] = system: MDA-MB-435
[3] = system: NCI-H460 lung
[4] = system: CCRF-CEM leukemia
[5] = system: HCT-15 colon
[6] = system: OVCAR-8 ovarian
[7] = system: HOP-62 NSCLC
[8] = system: M14 melanoma
[9] = system: SK-MEL-5 melanoma
[10] = system: SR leukemia

SMILES | TGI [1] | TGI [2] | TGI [3] | TGI [4] | TGI [5] | TGI [6] | TGI [7] | TGI [8] | TGI [9] | TGI [10] | GI50 [1] | GI50 [2] | GI50 [3] | GI50 [4] | GI50 [5] | GI50 [6] | GI50 [7] | GI50 [8] | GI50 [9] | GI50 [10]
CC(=O)c1c(CO[N+](=O)[O-])n([O-])c2ccccc2[n+]1=O | > 100 µM | > 100 µM | > 100 µM | > 100 µM | > 100 µM | > 100 µM | > 100 µM | > 100 µM | > 100 µM | > 100 µM | – | – | – | – | – | – | – | – | – | –
CC(C(N)C(=O)NC(C(=O)O)C1OC(n2ccc(=O)[nH]c2=O)C(O)C1O)C(O)c1ccc(O)cn1 (stereo not given) | > 100 µM | > 100 µM | > 100 µM | > 100 µM | > 100 µM | > 100 µM | > 100 µM | > 100 µM | > 100 µM | > 100 µM | – | – | – | – | – | – | – | – | – | –
CN1CCN(c2ccc(NC(=O)c3cncnc3Nc3ccc(OCc4ccccn4)c(Cl)c3)cc2)CC1 | 9.18 µM | 1.14 µM | 7.57 µM | 10.5 µM | 3.19 µM | 15.3 µM | 10.7 µM | 1.4 µM | 6.01 µM | 2.03 µM | 3130 nM | 605 nM | 2270 nM | 1860 nM | 961 nM | 5400 nM | 4310 nM | 650 nM | 1770 nM | 742 nM
[N-]=[N+]=NCCCn1c2c(c3ccc([N+](=O)[O-])cc3c1=O)C(=O)c1cc(F)ccc1-2 | > 30.2 µM | > 86.4 µM | 2.34 µM | 3.88 µM | > 100 µM | > 100 µM | 7.04 µM | 11.1 µM | 3.16 µM | 2.86 µM | 2300 nM | 4150 nM | 132 nM | 432 nM | 5860 nM | 2670 nM | 320 nM | 1130 nM | 803 nM | 113 nM
COc1cc(-c2csc(NC(=O)Nc3ccc(C(F)(F)F)cc3)n2)cc(OC)c1OC | 13.5 µM | 3.74 µM | 7.01 µM | 18.9 µM | 4.09 µM | 10.5 µM | 5.07 µM | 5.1 µM | 3 µM | 6.79 µM | 2860 nM | 1710 nM | 2520 nM | 3490 nM | 1710 nM | 2970 nM | 2010 nM | 2000 nM | 1620 nM | 2390 nM
CCc1ccc(C(=Nc2ccc(N(C)C(=O)CN3CCN(C)CC3)cc2)c2c(O)[nH]c3ccc(C(=O)OC)cc23)cc1 | 1.11 µM | 1.9 µM | 2.21 µM | 1.16 µM | 1.25 µM | 3.21 µM | 2.17 µM | 1.69 µM | 2.47 µM | 0.835 µM | 71.4 nM | 532 nM | 748 nM | 256 nM | 277 nM | 772 nM | 510 nM | 368 nM | 1200 nM | 164 nM
Cc1ccc(C(=O)/C(=C\c2ccc([N+](=O)[O-])cc2)S(=O)Cc2ccc(Cl)cc2)cc1 (stereo not given) | 3.45 µM | 4 µM | 3.9 µM | > 100 µM | 3.75 µM | 5.13 µM | 6.21 µM | 3.19 µM | 3.23 µM | 10.1 µM | 1770 nM | 1870 nM | 1840 nM | 635 nM | 1610 nM | 2050 nM | 2390 nM | 1650 nM | 1690 nM | 1130 nM
Cc1cc(-c2ccccn2)cc(C)c1/C=C/c1cncc(-c2nn[nH]n2)c1 | > 25 µM | > 25 µM | > 25 µM | > 25 µM | > 25 µM | > 25 µM | > 25 µM | > 25 µM | > 25 µM | > 25 µM | > 25000 nM | > 25000 nM | > 25000 nM | > 25000 nM | > 25000 nM | > 25000 nM | > 25000 nM | > 25000 nM | > 25000 nM | > 25000 nM
O=C1/C(=C/c2ccc(Cl)cc2)CCC/C1=C\c1ccc(Cl)cc1 | > 100 µM | 18.8 µM | > 100 µM | > 100 µM | > 100 µM | > 100 µM | > 100 µM | 8.7 µM | > 100 µM | > 100 µM | 4130 nM | 2780 nM | 6930 nM | 3640 nM | 3390 nM | 3640 nM | 8100 nM | 3040 nM | 4260 nM | 2770 nM
CC1(N)CCN(c2cnc(-c3cccc(Cl)c3Cl)c(N)n2)CC1 | > 100 µM | > 100 µM | > 100 µM | > 100 µM | > 100 µM | > 100 µM | 61.5 µM | 33.2 µM | 28.6 µM | 80 µM | 6480 nM | 28300 nM | 32700 nM | 23200 nM | 28300 nM | 28200 nM | 4280 nM | 16400 nM | 15200 nM | 7600 nM
